Assay results: patent US12290519B2, “Anti-inflammatory coupling compound drug, and preparation method therefor and use thereof” (COVAL BIOPHARMA (SHANGHAI) CO., LTD., priority 2021, dated 2025)

Assay: Hydrolysis rate / drug release rate of the compounds (release of JAK inhibitor, HPLC)
Type: physicochemical
Details: % release of JAK inhibitor from sample in acetonitrile/water=7/3 (v/v), 37° C. constant temperature shaker, sampled days 1-4, HPLC
Method: Analysis Method for Hydrolysis Rate of Compounds of the Present Invention
1. Preparation of Standard Working Curve Solution
About 10 mg of JAK inhibitors (tofacitinib and baricitinib) reference substances were weighed into a 25 mL volumetric flask, acetonitrile/water=7/3 (v/v) was added to dissolve and dilute to the marked volume, serving as a stock solution. The stock solution was diluted with a suitable dilution factor to obtain linear solutions of each concentration: 0.0002 mg/mL, 0.0004 mg/mL, 0.004 mg/mL, 0.04 mg/mL, and 0.08 mg/mL.
About 10 mg of JAK inhibitors (Oclacitinib, Ruxolitinib, Delgocitinib, and Upadacitinib) reference substances were weighed into a 25 mL volumetric flask, acetonitrile/water=7/3 (v/v) was added to dissolve and dilute to the marked volume, serving as a stock solution. The stock solution was diluted with a suitable dilution factor to obtain linear solutions of each concentration: 0.0002 mg/mL, 0.0004 mg/mL, 0.004 mg/mL, 0.04 mg/mL, and 0.08 mg/mL.
2. Preparation of Sample Solution
About 5 mg of the sample (the compound prepared in the present invention) was weighed into a 20 mL volumetric flask, acetonitrile/water=7/3 (v/v) was added to dissolve and dilute to the marked volume, serving as a stock solution. An appropriate amount of HPLC was loaded as the 0-day sample. The test solution was sealed with a sealing film and placed in a 37° C. constant temperature shaker. The test samples were taken at the same time on days 1, 2, 3, and 4 respectively. the release amount of JAK inhibitor in the sample was calculated according to the sample weight and JAK inhibitor standard curve.
3. Calculation Formula % Release of JAK Inhibitor r=100%×((AJAK Inhibitor−b)/a)/((W/20×M2/M1) wherein • AJAK inhibitor is the peak area of JAK inhibitor in the sample chromatogram • b is the intercept of the standard curve M1 is the molecular weight of the sample a is the slope of the standard curve
W is the sample weight (mg) M2 is the molecular weight of the JAK inhibitor
4. Chromatographic Conditions

| Release Rate (%/day) | SMILES |
| --- | --- |
| 3.08 %/day | COc1ccc2cc([C@H](C)C(=O)n3ccc4c(-c5cnn([C@H](CC#N)C6CCCC6)c5)ncnc43)ccc2c1 [Ex. 31] |
| 7.12 %/day | CC(C(=O)n1ccc2c(-c3cnn([C@H](CC#N)C4CCCC4)c3)ncnc21)c1cccc(C(=O)c2ccccc2)c1 (stereo partly drawn) [Ex. 32, (3R)-3-(4-(7-(2-(3-benzoylphenyl)propanoyl)-7H-pyrrolo [2,3-d]pyrimidin-4-yl)-1H-pyrazol-1-yl)-3-cyclopentylpropanenitrile] |
| 5.01 %/day | CC(C(=O)n1ccc2c(-c3cnn([C@H](CC#N)C4CCCC4)c3)ncnc21)c1ccc(-c2ccccc2)c(F)c1 (stereo partly drawn) [Ex. 33, (3R)-3-cyclopentyl-3-(4-(7-(2-(2-fluoro-[1, 1′-biphenyl]-4-yl)propanoyl)-7H-pyrrolo [2,3-d]pyrimidin-4-yl)-1H-pyrazol-1-yl) propanenitrile] |
| 1.57 %/day | CCC(C(=O)n1ccc2c(-c3cnn([C@H](CC#N)C4CCCC4)c3)ncnc21)c1ccc(N2Cc3ccccc3C2=O)cc1 (stereo partly drawn) [Ex. 34, (3R)-3-cyclopentyl-3-(4-(7-(2-(4-(1-oxoisoindolin-2-yl)phenyl)butanoyl)-7H-pyrrolo [2,3-d]pyrimidin-4-yl)-1H-pyrazol-1-yl) propanenitrile] |
| 4.57 %/day | CCC(C(=O)n1ccc2c(N(C)C3CCC(CS(=O)(=O)NC)CC3)ncnc21)c1ccc(N2Cc3ccccc3C2=O)cc1 (stereo not drawn) [Ex. 35, N-methyl-1-((trans)-4-(methyl (7-(2-(4-(1-oxoisoindolin-2-yl)phenyl)butanoyl)-7H-pyrrolo [2,3-d]pyrimidin-4-yl)amino)cyclohexyl) methanesulfonamide] |
| 14.98 %/day | CNS(=O)(=O)CC1CCC(N(C)c2ncnc3c2ccn3C(=O)C(C)c2ccc(-c3ccccc3)c(F)c2)CC1 (stereo not drawn) [Ex. 36, 1-((Trans)-4-((7-(2-(2-fluoro-[1, 1′-biphenyl]-4-yl)propanoyl)-7H-pyrrolo [2,3-d]pyrimidin-4-yl) (methyl)amino)cyclohexyl)-N-methyl methanesulfonamide] |
| 1.05 %/day | CCc1cccc2c3c([nH]c12)C(CC)(CC(=O)n1ccc2c(N(C)C4CCC(CS(=O)(=O)NC)CC4)ncnc21)OCC3 (stereo not drawn) [Ex. 37, 1-((Trans)-4-((7-(2-(1,8-diethyl-1,3,4,9-tetrahydropyrano [3,4-b]indol-1-yl)acetyl)-7H-pyrrolo [2,3-d]pyrimidin-4-yl) (methyl)amino)cyclohexyl)-N-methyl methanesulfonamide] |
| 18.42 %/day | CNS(=O)(=O)CC1CCC(N(C)c2ncnc3c2ccn3C(=O)C(C)c2cccc(C(=O)c3ccccc3)c2)CC1 (stereo not drawn) [Ex. 38, 1-((Trans)-4-((7-(2-(3-benzoylphenyl)propanoyl)-7H-pyrrolo [2,3-d]pyrimidin-4-yl) (methyl)amino)cyclohexyl)-N-methyl methanesulfonamide] |
| 10.11 %/day | CNS(=O)(=O)CC1CCC(N(C)c2ncnc3c2ccn3C(=O)[C@@H](C)c2ccc3cc(OC)ccc3c2)CC1 (stereo partly drawn) [Ex. 39, 1-((Trans)-4-((7-((S)-2-(6-methoxynaphthalen-2-yl)propanoyl)-7H-pyrrolo [2,3-d]pyrimidin-4-yl) (methyl)amino)cyclohexyl)-N-methyl methanesulfonamide] |
| 0.62 %/day | CCS(=O)(=O)N1CC(CC#N)(n2cc(-c3ncnc4c3ccn4C(=O)c3ccccc3Nc3cccc(Cl)c3C)cn2)C1 [Ex. 40, 2-(3-(4-(7-(2-((3-Chloro-2-methylphenyl)amino)benzoyl)-7H-pyrrolo [2,3-d]pyrimidin-4-yl)-1H-pyrazol-1-yl)-1-(ethylsulfonyl)azetidin-3-yl) acetonitrile] |
| 4.27 %/day | CNS(=O)(=O)CC1CCC(N(C)c2ncnc3c2ccn3C(=O)c2ccccc2Nc2cccc(Cl)c2C)CC1 (stereo not drawn) [Ex. 41, 1-((Trans)-4-((7-(2-((3-chloro-2-methylphenyl)amino)benzoyl)-7H-pyrrolo [2,3-d]pyrimidin-4-yl) (methyl)amino)cyclohexyl)-N-methyl methanesulfonamide] |
| 22.18 %/day | CNS(=O)(=O)C[C@H]1CC[C@H](N(C)c2ncnc3c2ccn3C(=O)Cc2c(C)n(C(=O)c3ccc(Cl)cc3)c3ccc(OC)cc23)CC1 [Ex. 42, 1-((Trans)-4-((7-(2-(1-(4-chlorobenzoyl)-5-methoxy-2-methyl-1H-indol-3-yl)acetyl)-7H-pyrrolo [2,3-d]pyrimidin-4-yl) (methyl)amino)cyclohexyl)-N-methylmethanesulfonamide] |
| 2.99 %/day | CNS(=O)(=O)C[C@H]1CC[C@H](N(C)c2ncnc3c2ccn3C(=O)c2ccccc2Nc2cccc(C)c2C)CC1 [Ex. 43, 1-((trans)-4-((7-(2-((2,3-dimethylphenyl)amino)benzoyl)-7H-pyrrolo [2,3-d]pyrimidin-4-yl) (methyl)amino)cyclohexyl)-N-methyl methanesulfonamide] |
| 10.18 %/day | CNS(=O)(=O)C[C@H]1CC[C@H](N(C)c2ncnc3c2ccn3C(=O)C(C)c2ccc(CC3CCCC3=O)cc2)CC1 (stereo partly drawn) [Ex. 44, N-methyl-1-((trans)-4-(methyl (7-(2-(4-((2-oxocyclopentyl)methyl)phenyl)propanoyl)-7H-pyrrolo [2,3-d]pyrimidin-4-yl)amino)cyclohexyl) methanesulfonamide] |
| 1.93 %/day | CCc1cccc2c3c([nH]c12)C(CC)(CC(=O)n1ccc2c(-c4cnn([C@H](CC#N)C5CCCC5)c4)ncnc21)OCC3 (stereo partly drawn) [Ex. 45, (3R)-3-cyclopentyl-3-(4-(7-(2-(1,8-diethyl-1,3,4,9-tetrahydropyran [3,4-b]indol-1-yl)acetyl)-7H-pyrrolo [2,3-d]pyrimidin-4-yl)-1H-pyrazol-1-yl) propanenitrile] |
| 25.52 %/day | CNS(=O)(=O)C[C@H]1CC[C@H](N(C)c2ncnc3c2ccn3C(=O)[C@@H](NC(=O)OC(C)(C)C)c2ccccc2)CC1 [Ex. 46, tert-butyl ((S)-2-(4-(methyl ((trans)-4-((N-methylsulfamoyl)methyl)cyclohexyl)amino)-7H-pyrrolo [2,3-d]pyrimidin-7-yl)-2-oxo-1-phenylethyl) carbamate] |
| 0.36 %/day | CCS(=O)(=O)N1CC(CC#N)(n2cc(-c3ncnc4c3ccn4C(=O)c3ccccc3Nc3cccc(C)c3C)cn2)C1 [Ex. 47, 2-(3-(4-(7-(2-((2,3-Dimethylphenyl)amino)benzoyl)-7H-pyrrolo [2,3-d]pyrimidin-4-yl)-1H-pyrazol-1-yl)-1-(ethylsulfonyl)azetidin-3-yl) acetonitrile] |
| 0.03 %/day | COc1ccc2cc([C@H](C)C(=O)OCn3ccc4c(N(C)[C@H]5CN(C(=O)CC#N)CC[C@H]5C)ncnc43)ccc2c1 [Ex. 48, 4-(((3R, 4R)-1-(2-cyanoacetyl)-4-methylpiperidin-3-yl) (methyl)amino)-7H-pyrrolo [2,3-d] pyrimidin-7-yl) methyl (S)-2-(6-methoxynaphthalen-2-yl) propanoate] |
